A value given as a limit tells only on which side of the number the result lay.

Chain of His-tagged recombinant human Gal-3 (hGal-3) (P17931 whole entry): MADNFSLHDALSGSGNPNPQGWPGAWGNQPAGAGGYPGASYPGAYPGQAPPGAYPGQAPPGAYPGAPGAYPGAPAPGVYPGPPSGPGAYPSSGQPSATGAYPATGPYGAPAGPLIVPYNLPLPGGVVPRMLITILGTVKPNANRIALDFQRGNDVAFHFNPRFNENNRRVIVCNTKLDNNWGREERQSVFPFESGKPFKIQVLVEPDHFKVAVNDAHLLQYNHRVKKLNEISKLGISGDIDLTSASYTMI
T1 sequence (P17931 whole entry): as above

The first assay has as its target His-tagged recombinant human Gal-3 (hGal-3) (Homo sapiens, UniProt P17931). Description: Gal 3 HTRF Assay. The following applies: HTRF assay (default), 15 nM hGal-3, 15 nM B-ASF; read-out: hGal3 IC50 (HTRF). Type of assay: binding. As for the experimental part: • ASSAY BUFFER Composition: 25 mM HEPES, 100 mM NaCl, 0.005% Tween 20, 0.05% BSA prepared in sterile water (all reagents from Sigma). Controls: • Positive Control: 100% DMSO (1 μL)+His-tagged hGal-3 (20 μL)+B-ASF (20 μL)+Anti-His Terbium Antibody (5 μL)+Strep d2 Antibody (5 μL). • Negative Control: 100% DMSO (1 μL)+His-tagged hGal-3(20 μL)+Anti His Terbium Antibody (5 μL)+Strep d2 Antibody (5 μL). Stocks Preparation:
PROTOCOL: The Gal-3 assays were performed in 384 white Opti plates in three replicates at room temperature with gentle shaking at 250-300 rpm From the original stocks, […] working stock concentrations of His-tagged recombinant human Gal-3 (hGal-3) and that of B-ASF were prepared. From the working stock, 20 μL of hGal-3 (15 nM) and 20 μL B-ASF (15 nM) were added to the plates. In Negative Control, only hGal-3 was added. A concentration range of 50× working stocks were prepared for the compounds in 100% DMSO. Aliquots of 1 μL of the compounds were added to the wells and pre-incubated with 20 μL hGal-3 per well for 30 minutes Then 20 μL B-ASF were added and incubated for another 1 hour. To detect the signal, 5 μL (final conc. of 1.0 nM) terbium labelled Anti-His antibody was added and incubated for 30 min followed by adding 5 μL (final conc. of 20 nM) Streptavidin d2 and incubation for another 1 hour. The assay signal was detected using HTRF screen protocol (Excitation wavelength=340 nm, emission wavelength=615 nm/665 nm) on Envision 2104 Multilabel Reader. Data analysed using Toolset and Curve Master. Results are reported in the experimental section (IC50 in μM). All IC50 reported were generated using the HTRF assay except when specifically indicated.
For orientation: Time-resolved FRET reads energy transfer from a long-lived donor to a nearby acceptor.
For orientation: IC50 means the point on the concentration scale where inhibition reaches its midpoint. With `CO[C@@H]1[C@@H](n2cc(-c3cccc(F)c3)nn2)[C@@H](O)[C@@H](CO)O[C@H]1C(=O)N[C@@H]1CCC[C@H](n2cc3c(F)cccc3n2)[C@H]1O` (single isomer, unassigned) [Example 8], the IC50 is 570 nM.

Regarding `CO[C@@H]1[C@@H](n2cc(-c3cccc(F)c3)nn2)[C@@H](O)[C@@H](CO)O[C@H]1C(=O)N(C)[C@H]1COC[C@@H](n2cc(-c3cccc(F)c3)nn2)[C@@H]1O` (single isomer, unassigned) [Example 21], the concentration for half-maximal inhibition (IC50) amounted to 30 nM.

For the molecule `CO[C@@H]1[C@@H](n2cc(-c3cccc(F)c3)nn2)[C@@H](O)[C@@H](CO)O[C@H]1C(=O)N(C)[C@H]1CN(C)C[C@@H](n2cc(-c3cccc(F)c3)nn2)[C@@H]1O` [Example 19, (2R,3R,4S,5R,6R)-4-(4-(3-fluorophenyl)-1H-1,2,3-triazol-1-yl)-N-((3S,4R,5R)-5-(4-(3-fluorophenyl)-1H-1,2,3-triazol-1-yl)-4-hydroxy-1-methylpiperidin-3-yl)-5-hydroxy-6-(hydroxymethyl)-3-methoxy-N-methyltetrahydro-2H-pyran-2-carboxamide], the IC50 worked out at 20 nM.

In the case of `CO[C@@H]1[C@@H](n2cc(-c3cccc(F)c3)nn2)[C@@H](O)[C@@H](CO)O[C@H]1C(=O)N(C)[C@H]1COC[C@@H](n2ncc3cc(F)cnc32)[C@@H]1O` [Example 22a, (2R,3R,4S,5R,6R)-N-((3S,4R,5R)-5-(5-fluoro-1H-pyrazolo[3,4-b]pyridin-1-yl)-4-hydroxytetrahydro-2H-pyran-3-yl)-4-(4-(3-fluorophenyl)-1H-1,2,3-triazol-1-yl)-5-hydroxy-6-(hydroxymethyl)-3-methoxy-N-methyltetrahydro-2H-pyran-2-carboxamide], the IC50 was above 10000 nM.

Consider “(2R,3R,4S,5R,6R)-4-(4-(3-fluorophenyl)-1H-1,2,3-triazol-1-yl)-N-((1R,2S,3S)-3-(5-(3-fluorophenyl)-1H-1,2,3-triazol-1-yl)-2-hydroxycyclohexyl)-5-hydroxy-6-(hydroxymethyl)-3-methoxytetrahydro-2H-pyran-2-carboxamide [Example 6a]”, for which the IC50 turned out to be 27000 nM.

In the case of “(2R,3R,4S,5R,6R)-4-(4-(3-fluorophenyl)-1H-1,2,3-triazol-1-yl)-N-((1R,2S,3S)-3-(5-(3-fluorophenyl)-1H-1,2,3-triazol-1-yl)-2-hydroxycyclohexyl)-5-hydroxy-6-(hydroxymethyl)-3-methoxytetrahydro-2H-pyran-2-carboxamide [Example 6b]”, the IC50 amounted to 900 nM.

For the molecule “(2R,3R,4S,5R,6R)-4-(4-(3-fluorophenyl)-1H-1,2,3-triazol-1-yl)-N-((1S,2R,3R)-3-(3-(3-fluorophenyl)-1H-1,2,4-triazol-1-yl)-2-hydroxycyclohexyl)-5-hydroxy-6-(hydroxymethyl)-3-methoxytetrahydro-2H-pyran-2-carboxamide [Example 9a]”, the IC50 came out at 500 nM.

As to “(2R,3R,4S,5R,6R)-4-(4-(3-fluorophenyl)-1H-1,2,3-triazol-1-yl)-N-((1S,2R,3R)-3-(3-(3-fluorophenyl)-1H-1,2,4-triazol-1-yl)-2-hydroxycyclohexyl)-5-hydroxy-6-(hydroxymethyl)-3-methoxytetrahydro-2H-pyran-2-carboxamide [Example 9b]”, the IC50 is above 100000 nM.

Regarding “(2R,3R,4S,5R,6R)-4-(4-(3-fluorophenyl)-1H-1,2,3-triazol-1-yl)-N-((1S,2R,3R)-3-(4-(3-fluorophenyl)-1H-1,2,3-triazol-1-yl)-2-hydroxycyclohexyl)-5-hydroxy-6-(hydroxymethyl)-3-methoxy-N-methyltetrahydro-2H-pyran-2-carboxamide [Example 10a]”, the IC50 amounted to 5500 nM.

With “(2R,3R,4S,5R,6R)-4-(4-(3-fluorophenyl)-1H-1,2,3-triazol-1-yl)-N-((1S,2R,3R)-3-(4-(3-fluorophenyl)-1H-1,2,3-triazol-1-yl)-2-hydroxycyclohexyl)-5-hydroxy-6-(hydroxymethyl)-3-methoxy-N-methyltetrahydro-2H-pyran-2-carboxamide [Example 10b]”, the IC50 was 91 nM.

Consider “(2R,3R,4S,5R,6R)-4-(4-(3-fluorophenyl)-1H-1,2,3-triazol-1-yl)-N-((3R,4S,5S)-5-(4-(3-fluorophenyl)-1H-1,2,3-triazol-1-yl)-4-hydroxypiperidin-3-yl)-3,5-dihydroxy-6-(hydroxymethyl)-N-methyltetrahydro-2H-pyran-2-carboxamide [Example 18a]”, for which the IC50 came to 1800 nM.

In the case of “(2R,3R,4S,5R,6R)-4-(4-(3-fluorophenyl)-1H-1,2,3-triazol-1-yl)-N-((3R,4S,5S)-5-(4-(3-fluorophenyl)-1H-1,2,3-triazol-1-yl)-4-hydroxypiperidin-3-yl)-3,5-dihydroxy-6-(hydroxymethyl)-N-methyltetrahydro-2H-pyran-2-carboxamide [Example 18b]”, the IC50 is 50 nM.

Take “(2R,3R,4S,5R,6R)-4-(4-(3-fluorophenyl)-1H-1,2,3-triazol-1-yl)-N-((3R,4S,5S)-5-(4-(3-fluorophenyl)-1H-1,2,3-triazol-1-yl)-4-hydroxypiperidin-3-yl)-5-hydroxy-6-(hydroxymethyl)-3-methoxy-N-methyltetrahydro-2H-pyran-2-carboxamide [Example 16a]”: the IC50 came out at 3500 nM.

Consider “(2R,3R,4S,5R,6R)-4-(4-(3-fluorophenyl)-1H-1,2,3-triazol-1-yl)-N-((3R,4S,5S)-5-(4-(3-fluorophenyl)-1H-1,2,3-triazol-1-yl)-4-hydroxypiperidin-3-yl)-5-hydroxy-6-(hydroxymethyl)-3-methoxy-N-methyltetrahydro-2H-pyran-2-carboxamide [Example 16b]”, for which the IC50 is 44 nM.

On to “(2R,3R,4S,5R,6R)-4-(4-(3-fluorophenyl)-1H-1,2,3-triazol-1-yl)-N-((3R,4S,5S)-5-(4-(3-fluorophenyl)-1H-1,2,3-triazol-1-yl)-4-hydroxytetrahydro-2H-pyran-3-yl)-5-hydroxy-6-(hydroxymethyl)-3-methoxytetrahydro-2H-pyran-2-carboxamide [Example 20a]”, for which the IC50 came out at 36000 nM.

With “(2R,3R,4S,5R,6R)-4-(4-(3-fluorophenyl)-1H-1,2,3-triazol-1-yl)-N-((3R,4S,5S)-5-(4-(3-fluorophenyl)-1H-1,2,3-triazol-1-yl)-4-hydroxytetrahydro-2H-pyran-3-yl)-5-hydroxy-6-(hydroxymethyl)-3-methoxytetrahydro-2H-pyran-2-carboxamide [Example 20b]”, the IC50 worked out at 90 nM.

Turning to “(2R,3R,4S,5R,6R)-N-((1R,2S,3S)-3-(4-fluoro-1H-indazol-1-yl)-2-hydroxycyclohexyl)-4-(4-(3-fluorophenyl)-1H-1,2,3-triazol-1-yl)-5-hydroxy-6-(hydroxymethyl)-3-methoxytetrahydro-2H-pyran-2-carboxamide [Example 7a]”, the IC50 is 640 nM.

Consider “(2R,3R,4S,5R,6R)-N-((1R,2S,3S)-3-(4-fluoro-1H-indazol-1-yl)-2-hydroxycyclohexyl)-4-(4-(3-fluorophenyl)-1H-1,2,3-triazol-1-yl)-5-hydroxy-6-(hydroxymethyl)-3-methoxytetrahydro-2H-pyran-2-carboxamide [Example 7b]”, for which the IC50 is 23000 nM.

Regarding “(2R,4R,5R,6R)-4-(4-(3-fluorophenyl)-1H-1,2,3-triazol-1-yl)-N-((3R,4S,5S)-5-(4-(3-fluorophenyl)-1H-1,2,3-triazol-1-yl)-4-hydroxypiperidin-3-yl)-5-hydroxy-6-(hydroxymethyl)-N-methyltetrahydro-2H-pyran-2-carboxamide [Example 17a]”, the concentration for half-maximal inhibition (IC50) stood at 5200 nM.

As for “(2R,4R,5R,6R)-4-(4-(3-fluorophenyl)-1H-1,2,3-triazol-1-yl)-N-((3R,4S,5S)-5-(4-(3-fluorophenyl)-1H-1,2,3-triazol-1-yl)-4-hydroxypiperidin-3-yl)-5-hydroxy-6-(hydroxymethyl)-N-methyltetrahydro-2H-pyran-2-carboxamide [Example 17b]”, the IC50 came to 130 nM.

As for “(2R, 3R, 4S, 5R, 6R)-4-(4-(3-fluorophenyl)-1H-1,2,3-triazol-1-yl)-N-((1S,2R,3R)-3-(4-(3-fluorophenyl)-1H-1,2,3-triazol-1-yl)-2-hydroxycyclohexyl)-5-hydroxy-6-(hydroxymethyl)-3-methoxytetrahydro-2H-pyran-2-carboxamide [Example 1a]”, the IC50 is 290 nM.

A further assay addresses T1, hGalectin-3 (Homo sapiens, UniProt P17931).
T1 construct: made in house
Description: Gal-3 ELISA Assay (hGalectin-3 neutralization binding assay). Particulars: ASF-coated plate, 15 nM hGalectin-3, read-out: hGal3 IC50 (ELISA). (In general: An ELISA detects its analyte on a solid surface through an enzyme-linked reagent.)
In the case of “(2R, 3R, 4S, 5R, 6R)-4-(4-(3-fluorophenyl)-1H-1,2,3-triazol-1-yl)-N-((1S,2R,3R)-3-(4-(3-fluorophenyl)-1H-1,2,3-triazol-1-yl)-2-hydroxycyclohexyl)-5-hydroxy-6-(hydroxymethyl)-3-methoxytetrahydro-2H-pyran-2-carboxamide [Example 1a]”, the half-inhibitory concentration (IC50) was 0.7 µM.

Consider “(2R, 3R, 4S, 5R, 6R)-4-(4-(3-fluorophenyl)-1H-1,2,3-triazol-1-yl)-N-((1S,2R,3R)-3-(4-(3-fluorophenyl)-1H-1,2,3-triazol-1-yl)-2-hydroxycyclohexyl)-5-hydroxy-6-(hydroxymethyl)-3-methoxytetrahydro-2H-pyran-2-carboxamide [Example 1b]”, for which the IC50 was 16 µM.

For the origin of these results see patent US12275720B2, “Small molecule inhibitors of galectin-3” (BRISTOL MYERS SQUIBB, priority 2020, dated 2025).
